Measurements from paper PMC8571951, “An activity‐based bioprobe differentiates a novel small molecule inhibitor from a LOXL2 antibody and provides renewed promise for anti‐fibrotic therapeutic strategies” (Clinical and Translational Medicine, 2021).

Assays:
[1] = test system: streptozotocin and high fat diet-induced model of NASH; experiment: Streptozotocin and high fat diet-induced mouse model of NASH; assay type: in vivo
Method: PXS-5338 was evaluated in a 14-week mouse model of NASH (Takakura, Koido et al. 2014), dosing therapeutically at 10 mg/kg from weeks 8-12 and increasing to 30 mg/kg from weeks 12-14. […] Telmisartan served as a positive pharmacological control.

[2] = biological target: T1, native LOXL2 protein in human plasma (Homo sapiens, UniProt Q9Y4K0); experiment: PXS-5878/Simoa platform, residual LOXL2 activity in human plasma; assay type: biochemical; conditions: human plasma incubated 30 min; read-out: IC50, inhibition of native LOXL2 in human plasma
T1 construct: from tissue; host or cells: human plasma (activity) and human serum (protein concentration) from clinical trial subjects
T1 sequence (Q9Y4K0 26-774): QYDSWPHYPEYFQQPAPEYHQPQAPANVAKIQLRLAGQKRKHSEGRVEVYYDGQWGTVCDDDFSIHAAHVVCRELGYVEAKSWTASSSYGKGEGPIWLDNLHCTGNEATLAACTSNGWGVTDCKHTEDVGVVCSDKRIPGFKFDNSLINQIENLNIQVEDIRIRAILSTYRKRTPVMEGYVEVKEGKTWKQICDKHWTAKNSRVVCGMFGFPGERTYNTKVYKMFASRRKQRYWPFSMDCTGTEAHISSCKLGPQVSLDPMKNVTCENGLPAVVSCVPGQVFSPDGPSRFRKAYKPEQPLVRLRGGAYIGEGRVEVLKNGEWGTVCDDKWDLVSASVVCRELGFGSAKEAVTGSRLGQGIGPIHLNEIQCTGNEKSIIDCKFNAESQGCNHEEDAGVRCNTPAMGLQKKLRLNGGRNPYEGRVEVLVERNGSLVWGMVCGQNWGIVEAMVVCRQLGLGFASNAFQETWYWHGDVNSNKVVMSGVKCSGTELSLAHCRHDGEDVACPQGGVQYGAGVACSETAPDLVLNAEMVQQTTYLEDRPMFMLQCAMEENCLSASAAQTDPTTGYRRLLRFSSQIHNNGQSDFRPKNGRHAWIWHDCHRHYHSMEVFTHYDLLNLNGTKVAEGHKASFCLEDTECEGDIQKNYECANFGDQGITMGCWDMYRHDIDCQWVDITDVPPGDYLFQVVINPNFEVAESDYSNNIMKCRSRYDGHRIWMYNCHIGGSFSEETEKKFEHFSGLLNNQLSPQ
Method: FIGURE 2 Characteristics of PXS‐5338 and inhibition of lysyl oxidase‐like 2 (LOXL2) enzymatic activity in vitro and in vivo. (A) Chemical structure of PXS‐5338. […] (B) Tissue levels of PXS‐5338 measured 1 and 4 h after a single oral dose of 30 mg/kg in the rat. […] Average data from three different animals. (C) Concentration‐dependent inhibition of native […] LOX and rh LOXL1‐4 in a standard Amplex Red assay with 30 min pre‐incubation; n ≥3 independent experiments, standard error of mean (SEM). (D) PXS‐5338 inhibits rh LOXL2 in a time‐dependent manner, with increasing potency observed upon longer incubation with the enzyme. LOXL2 activity data devised from Amplex Red assay using putrescine as substrate and varying pre‐incubation times; n ≥3 independent experiments, standard error of mean (SEM). […] AB0023 and the corresponding isotype control antibody GS834298 were kindly provided by Gilead. Concentration‐response curves for the pan‐LOX inhibitor BAPN and LOXL2‐selective inhibitor PXS‐5338 are included for comparison. Data represented as mean ± SD with n = 5/concentration. […] To enable translation of preclinical data into the clinic, human plasma was incubated with different concentrations of PXS‐5338 for 30 min and the PXS‐5878/Simoa® platform used to measure the residual activity. […]

[3] = Pharmacokinetic profile in healthy human males; assay type: in vivo
Method: FIGURE 3 Inhibition of human lysyl oxidase‐like 2 (LOXL2) enzymatic activity by PXS‐5338 in clinical trials. (A) LOXL2 protein concentration in human serum is fairly constant over 24 h. Protein concentrations normalised to pre‐dose levels are plotted over time in healthy subjects treated with different doses (placebo, 100, 200 and 400 mg) of PXS‐5338. Mean ± SD with n = 6/time point. Phase 1 study with healthy male volunteers, ANZCTR ACTRN12617001444370. Legend of (A) also applies to (B) and (C). (B) Dose‐dependent inhibition of LOXL2 in plasma following a single oral dose of 100, 200 mg or 400 mg PXS‐5338. PXS‐5878/Simoa® platform used to measure the residual activity. Mean ± SD with n = 6/time point. (C) Pharmacokinetic (PK) profile of PXS‐5338 in healthy human males. […] (D) Correlation between LOXL2 protein concentration versus % inhibition. Activity data normalised to pre‐dose value.

[4] = 10 mg/kg weeks 8-12, 30 mg/kg weeks 12-14

| SMILES | Collagen content (hydroxyproline) [1, 4] | Fibrosis, fibrotic area (picrosirius red staining) [1, 4] | Hepatocyte ballooning [1, 4] | Immature and mature crosslinks (DHLNL and PYD) [1, 4] | NASH scoring ([1]; 10 mg/kg weeks 8-12, 30 mg/kg weeks 12-14, vs NASH group) | IC50 [2] [nM] | Compound half-life in humans [3] |
| --- | --- | --- | --- | --- | --- | --- | --- |
| CC(C)c1c(Cc2ccc(S(C)(=O)=O)nc2)c2ncccc2n1C/C(F)=C/CN [PXS-5338] | significant reduction in collagen content | significantly attenuated fibrosis | reduction in hepatocyte ballooning | reduction in immature and mature crosslinks | significantly decreased NASH scoring |  |  |
| CC(C)c1c(Cc2ccc(S(C)(=O)=O)nc2)c2ncccc2n1C/C(F)=C/CN [PXS‐5338] |  |  |  |  |  | 37 | prolonged compound half‐life |
